Data from patent publication US12138293B2 (priority 2020, dated 2024).
Where “and” joins values, the source holds several entries; their conditions need not be identical. Identical values can stand only once. Like-named read-outs stand apart in the source and are kept apart here. Residues, ends and D or L forms follow the SMILES beside them.

Experiments:
[1] = system: eye of Dutch Belted rabbits; details: rabbit, in vivo
[2] = system: nitrogen mustard (NM)-exposed cornea; parameters: species or system New Zealand white rabbits; details: rabbit, in vivo
[3] = in vivo; details: rabbit
[4] = rabbit, in vivo
[5] = rabbit, in vivo; remark: listed apart in the source
[6] = system: heptanol-induced corneal erosion (chemical burn injury) in rabbit eyes; details: in vivo
[7] = format: physicochemical
[8] = system: transepithelial PTK injury of rabbit corneas; parameters: species or system rabbits; details: in vivo

CC[C@H](C)[C@H](NC(=O)[C@H](CCC(=O)O)NC(=O)[C@H](CC(C)C)NC(=O)[C@H](CC(=O)O)NC(=O)[C@H](CC(=O)O)NC(=O)[C@@H]1CCCN1C(=O)[C@H](CCCNC(=N)N)NC(=O)[C@@H]1CCCN1C(=O)[C@H](CCCNC(=N)N)NC(=O)[C@H](CCCCN)NC(=O)[C@H](CCCCN)NC(=O)[C@H](Cc1c[nH]c2ccccc12)NC(=O)[C@@H]1CCCN1C(=O)[C@H](CCCCN)NC(=O)[C@H](CCCNC(=N)N)NC(=O)[C@H](CCCNC(=N)N)NC(=O)[C@H](CC(N)=O)NC(=O)[C@@H]1CCCN1C(=O)[C@H](Cc1ccccc1)NC(=O)[C@H](Cc1c[nH]c2ccccc12)NC(=O)[C@@H](NC(=O)[C@H](CCCCN)NC(=O)[C@@H]1CCCN1C(=O)[C@H](CCC(N)=O)NC(=O)[C@H](CCCNC(=N)N)NC(=O)CCCCCNC(=O)CCCC[C@@H]1SC[C@@H]2NC(=O)N[C@@H]21)[C@@H](C)CC)C(=O)O [aCT1, RQPKIWFPNRRKPWKK RPRPDDLEI] (HELM PEPTIDE1{[O=C1N[C@H]2[C@H](CS[C@H]2CCCCC(=O)[*:2])N1].[O=C(CCCCCN[*:1])[*:2]].R.Q.P.K.I.W.F.P.N.R.R.K.P.W.K.K.R.P.R.P.D.D.L.E.I}$$$$V2.0; N-terminus and C-terminus assumed)
Contact of saline formulation with the ocular surface [1]: did not remain in contact with the ocular surface for a period of time sufficient | Corneal edema (corneal thickness) [2]: limited corneal edema damage | Corneal fibroblasts/keratocytes [2]: protection of corneal fibroblasts/keratocytes | Expression of COX-2 [2]: reduced | Formation of new blood vessels in the corneal stroma [2]: limited the formation of new blood vessels | Inflammatory cell infiltration in the corneal stroma (H&E) [2]: significantly decreases inflammatory cell infiltration | MMP-9 expression in the stroma [2]: reduction in MMP-9 expression | VEGF expression [2]: decreased | Tmax ([3]; both): 15 min | tissue level at time at 0.25 h ([3]; both, topical or ocular, 0.1 umol/eye/dose, Retinal tissue concentration): 1.91 to 24.2 ng/g | tissue level at time at 0.25 h ([3]; female, topical or ocular, 0.1 umol/eye/dose, Cornea mean level): 181 ± 50 ng/g | tissue level at time at 0.25 h ([3]; female, topical or ocular, 0.1 umol/eye/dose, Palpebral conjunctiva highest mean concentration): 2730 ± 697 ng/g | level at 0.25 h ([3]; male, topical or ocular, 0.1 umol/eye/dose): 3.26 ± 5.28 ng/mL | tissue level at time at 0.25 h ([3]; male, topical or ocular, 0.1 umol/eye/dose, Aqueous humor mean level): 115 ± 76.3 ng/g | tissue level at time at 0.25 h ([3]; male, topical or ocular, 0.1 umol/eye/dose, Palpebral conjunctiva highest mean concentration): 939 ± 228 ng/g | Vitreous humor levels [4]: quantifiable levels | Whole blood concentration, all other samples [4]: below the lower limit of quantitation (LLOQ) | Maximum tolerated dose (MTD) [5]: no maximum tolerated dose (MTD) was identified | Microscopic findings in the eye tissues [5]: no microscopic findings | No observed adverse effect level (NOAEL) [5]: 1.0 μmol/eye | Tolerability (cage-side or clinical observations, body weight, clinical pathology, organ weight, necropsy) [5]: well-tolerated and did not result in any adverse findings | Corneal healing measured by central corneal thickness [6]: accelerated corneal healing | Corneal healing measured by fluorescein staining [6]: accelerated corneal healing | Loss of Purity ([7]; pH 6.5): 0.67% and 0.24% and 0.03% and 0.76% and 1.05% | Loss of Purity (%) ([7]; pH 6.5): 0.44% and 0.39% and 0.30% and 0.19% and 0.06% | Loss of Purity (%) ([7]; pH 7): 0.33% | Loss of Purity (%) ([7]; pH 7.5): 0.50% | Corneal healing (fluorescein staining) [8]: accelerated corneal healing
